These are literature values, as cited in patent EP0436316A1, “X-ray contrast media for prolonged opacification” (Sovak, Milos, priority 1989, dated 1991).

For the data set, the system named is peritoneal surface. The settings on record: barium sulfate spilled into the abdomen after a perforation.

Consider `O=S(=O)([O-])[O-].[Ba+2]` [barium sulfate], for which the “mortality rate of barium peritonitis” value is given as around 50%.
